Measurements published in patent publication US9447136B2, “Semisynthetic derivatives of Nystatin A1” (BLIRT S.A., priority 2012, dated 2016).
Converted amounts (≈) assume the structure as drawn. Where two headings read alike, the source gives them in different places.

Experiments:
[1] = system: Candida albicans F5; assay: Antifungal activity towards resistant (MDR) strains; type: cell-based; settings: fluconazole-resistant due to the overexpression of CaMDR1 and ERG11
Procedure: (§1) The determination of antifungal activity was performed by the serial dilutions method in buffered RPMI 1640 medium, in a 96-wells microplates, according to the standard procedure (National Committee for Clinical Laboratory Standards. Reference method for broth dilution antifungal susceptibility testing of yeast, approved standard, 2nd ed. M27-A2 vol. 22 Wayne, Pa., 2002). The optical density of cells suspension was measured using a microplates reader (Victor^3, Perkin-Elmer) at the wavelength λ=660 nm (A660). On the basis of received results the diagrams on interrelation between the A660 value and the concentration of tested compound were made. From these graphs MIC values were read, that are the concentrations of tested compounds, in the presence at which A660 value is at most 20% of A660 value measured in control sample.

[2] = system: Candida albicans STY7; assay: as above; type: cell-based; settings: 5674 mutant derivative, deletion of CDR2
Procedure: as §1

[3] = system: Candida albicans B3; assay: as above; type: cell-based; settings: fluconazole sensitive, parent strain for B4
Procedure: as §1

[4] = system: Candida albicans STY19; assay: as above; type: cell-based; settings: 5674 mutant derivative, deletion of CDR1
Procedure: as §1

[5] = system: Candida albicans STY31; assay: as above; type: cell-based; settings: 5674 mutant derivative, deletion of CDR1 and CDR2
Procedure: as §1

[6] = system: Candida albicans Gu4; assay: as above; type: cell-based; settings: fluconazole sensitive, parent strain for Gu5
Procedure: as §1

[7] = system: Candida albicans Gu5; assay: as above; type: cell-based; settings: fluconazole-resistant due to the overexpression of CDR1 and CDR2
Procedure: as §1

[8] = system: Candida albicans 5674; assay: as above; type: cell-based; settings: C. albicans 5674 overexpressing CDR1 and CDR2
Procedure: as §1

[9] = system: Candida albicans B4; assay: as above; type: cell-based; settings: fluconazole-resistant due to the overexpression of CaMDR1
Procedure: as §1

[10] = system: Candida albicans F2; assay: as above; type: cell-based; settings: fluconazole sensitive, parent strain for F5
Procedure: as §1

[11] = system: Candida quilliermondii DSM 11947; assay: Antifungal activity in vitro, serial dilution in RPMI 1640; type: cell-based; settings: Table 2B
How it was run: (§2)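 Serial dilution, RPMI 1640 pH 7.0 (M27-A2 reference method); A531 read-out. IC50 = interpolated conc. at 50% of control A531; MIC = lowest conc. with A531 ≤20% of control.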

[12] = system: Trichoderma viride LOCK E159; assay: as above; type: cell-based; settings: Table 2B
How it was run: as §2

[13] = system: Candida pseudotropicalis KKP 324; assay: as above; type: cell-based; settings: Table 2B
How it was run: as §2

[14] = system: Candida albicans ATCC 10231; assay: as above; type: cell-based
How it was run: as §2

[15] = system: Candida lipolytica KKP 322; assay: as above; type: cell-based; settings: Table 2B
How it was run: as §2

[16] = system: Candida arborea KKP 319; assay: as above; type: cell-based; settings: Table 2B
How it was run: as §2

[17] = system: Saccharomyces cerevisiae ATCC 9763; assay: as above; type: cell-based
How it was run: as §2

[18] = system: Candida parapsilosis DSM 5784; assay: as above; type: cell-based; settings: Table 2B
How it was run: as §2

[19] = system: Candida dubliniensis CBS 7987; assay: as above; type: cell-based; settings: Table 2B
How it was run: as §2

[20] = system: Candida stellatoidea CBS 1905; assay: as above; type: cell-based; settings: Table 2B
How it was run: as §2

[21] = system: Aspergillus niger LOCK E201; assay: as above; type: cell-based; settings: Table 2B
How it was run: as §2

[22] = system: Human erythrocytes; assay: Hemotoxicity (hemolytic activity)
Procedure: The hemotoxicity determination were carried out by the serial dilutions method, according to the procedure described earlier (Ślisz, M., et al., E., J Antibiot 57: 669-678 (2004)). Human erythrocytes were suspensed in the solution of saline to obtain a cell density of suspension 2×10^7/ml. Suitable amounts of diluted solutions of compounds were added to the cell suspension in tubes and were incubated at 37° C. for 30 minutes and then centrifuged (1700×g, 10 min, 4° C.). The concentration of hemoglobin in supernatant after centrifugation of erythrocytes suspension were determined by measuring the absorbance at wavelength λ=540 nm (A540). The maximum level of hemolysis was obtained after incubation of cells suspension in the presence of 0.1% Tritone X-100 (control sample). […] From these graphs, the EH50 values were read which are the interpolated concentrations of compound, for which the A540 value is exactly 50% of the A540 value measured for the control sample.

[23] = system: CCRF-CEM; assay: Cytotoxic activity against mammalian cells in tissue culture (MTT); type: cell-based, human; settings: CCRF-CEM, 120 h, MTT
Procedure: (§3) For examinations were used selected cell lines: CCRF-CEM—human acute lymphoblastic leukemia; HepG2—human malignant hepatoma; LLC-PK1—epithelial cell of pig kidney; All lines were from ATCC collection.
(§4) The study are conducted using described below methods of culturing and determination of cytotoxic activity.
(§5) CCRF-CEM cells were cultured in medium RPMI 1640+10% fetal bovine serum (FBS), LLC-PK1 cells in medium Medium 199+3% FBS, HepG2 cells in medium MEM+10% FBS. All media contained 100 μg/ml of penicillin G and streptomycin. 24-wells microplates containing appropriate medium were inoculated with the cells in amount of 1.2×10^4 cells/well and allowed to stand overnight. Next, tested compounds as solution in dimethylsulfoxide (DMSO) were added in volume of 10 μl (serial 2× dilutions). To control well 10 μl of DMSO was added. Microplates with cell suspensions were incubated for 120 h at temperature 37° C. at atmosphere of 95%/5% CO2. After incubation, to all wells 200 μl of solution of 3-(4,5-dimethylthiazole-2-yl)-2,5-diphenylotetrazole bromide (MTT) in PBS (4 mg/ml) was added and plates were further incubated for 4 h at 37° C. Next, to dissolve crystals of formazane 1 ml of DMSO was added and absorption of solutions was measured at the wavelength λ=540 nm (A540), using a microplates reader (Victor^3, Perkin-Wallac). […] From these graphs IC50 values were read, that is concentration of tested compound in the presence at which A540 value is half of A540 value measured in the control sample.

[24] = system: HepG2; assay: as above; type: cell-based, human; settings: HepG2, 120 h, MTT
Procedure: as §3, §4, §5

[25] = system: Candida glabrata DSM 11226; assay: Antifungal activity in vitro, serial dilution in RPMI 1640; type: cell-based; settings: Table 2A; RPMI 1640, pH 7.0
How it was run: as §2

[26] = system: Candida lusitaniae DSM 70102; assay: as above; type: cell-based; settings: Table 2A; RPMI 1640, pH 7.0
How it was run: as §2

[27] = system: Candida tropicalis KKP 334; assay: as above; type: cell-based; settings: Table 2A; RPMI 1640, pH 7.0
How it was run: as §2

[28] = system: Candida krusei DSM 6128; assay: as above; type: cell-based; settings: Table 2A; RPMI 1640, pH 7.0
How it was run: as §2

[29] = system: LLC-PK1; assay: Cytotoxic activity against mammalian cells in tissue culture (MTT); type: cell-based, pig; settings: LLC-PK1, 120 h, MTT
Procedure: as §3, §4, §5

[30] = Table 2A, RPMI 1640, pH 7.0, A531 at most 20% of control

C[C@@H]1[C@H](O)[C@@H](C)/C=C/C=C/CC/C=C/C=C/C=C/C=C/[C@H](O[C@@H]2O[C@H](C)[C@@H](O)[C@H](NC(=O)[C@H](N)c3ccccc3)[C@@H]2O)C[C@@H]2O[C@](O)(C[C@@H](O)C[C@@H](O)[C@H](O)CC[C@@H](O)C[C@@H](O)CC(=O)O[C@H]1C)C[C@H](O)[C@H]2C(=O)O [Compound N33, N-D-phenylglycylnystatin A1]
MIC Candida albicans F5 [1]: 32 µg/mL (≈ 30.2 µM)
MIC Candida albicans STY7 [2]: 16 µg/mL (≈ 15.1 µM)
MIC Candida albicans B3 [3]: 4 µg/mL (≈ 3.78 µM)
MIC Candida albicans STY19 [4]: 16 µg/mL (≈ 15.1 µM)
MIC Candida albicans STY31 [5]: 16 µg/mL (≈ 15.1 µM)
MIC Candida albicans Gu4 [6]: 8 µg/mL (≈ 7.55 µM)
MIC Candida albicans Gu5 [7]: 8 µg/mL (≈ 7.55 µM)
MIC Candida albicans 5674 [8]: 16 µg/mL (≈ 15.1 µM)
MIC Candida albicans B4 [9]: 8 µg/mL (≈ 7.55 µM)
MIC Candida albicans F2 [10]: 16 µg/mL (≈ 15.1 µM)
MIC Candida quilliermondii DSM 11947 [11]: 16 µg/mL (≈ 15.1 µM)
MIC Trichoderma viride LOCK E159 [12]: 32 µg/mL (≈ 30.2 µM)
MIC Candida pseudotropicalis KKP 324 [13]: 8 µg/mL (≈ 7.55 µM)
MIC Candida albicans ATCC 10231 ([14]; Table 2B): 8 µg/mL (≈ 7.55 µM)
MIC Candida lipolytica KKP 322 [15]: 16 µg/mL (≈ 15.1 µM)
MIC Candida arborea KKP 319 [16]: 32 µg/mL (≈ 30.2 µM)
MIC Saccharomyces cerevisiae ATCC 9763 ([17]; Table 2B): 4 µg/mL (≈ 3.78 µM)
MIC Candida parapsilosis DSM 5784 [18]: 32 µg/mL (≈ 30.2 µM)
MIC Candida dubliniensis CBS 7987 [19]: 16 µg/mL (≈ 15.1 µM)
MIC Candida stellatoidea CBS 1905 [20]: 8 µg/mL (≈ 7.55 µM)
MIC Aspergillus niger LOCK E201 [21]: 32 µg/mL (≈ 30.2 µM)
% of hemolysis at the concentration 300 μg ml^−1 [22]: 8.69%
EH10 [22]: >300 µg/mL

CC1OC(O[C@H]2/C=C/C=C/C=C/C=C/CC/C=C/C=C/[C@H](C)[C@@H](O)[C@@H](C)[C@H](C)OC(=O)C[C@H](O)C[C@H](O)C[C@H](O)CC[C@@H](O)[C@H](O)CC3(O)C[C@H](O)[C@@H](C(=O)O)[C@H](C2)O3)C(O)C(NC(=S)NCCCN(C)C)C1O (stereo partly shown) [Compound N17, N-{3-[3-(N,N-dimethylamino)propyl]thioureidyl}nystatin A1]
Cytotoxicity IC50 CCRF-CEM [23]: >100 µg/mL
Cytotoxicity IC50 HepG2 [24]: >100 µg/mL
Antifungal activity Candida glabrata DSM 11226 MIC [25]: 8 µg/mL
Antifungal activity Candida lusitaniae DSM 70102 MIC [26]: 4 µg/mL
Antifungal activity Candida albicans ATCC 10231 IC50 ([14]; Table 2A, RPMI 1640, pH 7.0, A531 50% of control): 2.92 µg/mL
Antifungal activity Candida albicans ATCC 10231 MIC [14, 30]: 4 µg/mL
Antifungal activity Saccharomyces cerevisiae ATCC 9763 MIC [17, 30]: 4 µg/mL
Antifungal activity Candida tropicalis KKP 334 MIC [27]: 4 µg/mL
Antifungal activity Candida krusei DSM 6128 MIC [28]: 8 µg/mL
Cytotoxicity IC50 LLC-PK1 [29]: >100 µg/mL
EH10 ([22]; human erythrocytes, concentration causing 10% of hemolysis): 156.33 µg/mL
